Source: ChEMBL document CHEMBL1154800, “TDAE-assisted synthesis of new imidazo[2,1-b]thiazole derivatives as anti-infectious agents” (2010)
Converted amounts (≈) assume the structure as drawn. The source made the active and inactive calls. The calls are words filed in the database; no cut-off is given here.

What was measured:
Escherichia coli [1] = test: Antimicrobial activity against Escherichia coli ATCC 10536 after 24 hrs by microplate assay; format: functional
Staphylococcus aureus [2] = test: Antimicrobial activity against Staphylococcus aureus ATCC 6538 after 24 hrs by microplate assay; format: functional
Pseudomonas aeruginosa [3] = test: Antimicrobial activity against Pseudomonas aeruginosa ATCC 15442 by disk diffusion method; format: functional
Enterococcus hirae [4] = test: Antimicrobial activity against Enterococcus hirae ATCC 10541 by disk diffusion method; format: functional
Pichia kudriavzevii [5] = test: Antimicrobial activity against Candida krusei ATCC 6258 after 48 hrs by microplate assay; format: functional; conditions: ATCC 6258, 48 h
Candida albicans [6] = test: Antimicrobial activity against Candida albicans ATCC 2091 by disk diffusion method; format: functional
Staphylococcus aureus [7] = test: Antimicrobial activity against Staphylococcus aureus ATCC 6538 by disk diffusion method; format: functional
Escherichia coli [8] = test: Antimicrobial activity against Escherichia coli ATCC 10536 by disk diffusion method; format: functional
Nakaseomyces glabratus [9] = test: Antimicrobial activity against Candida glabrata ATCC 90030 after 48 hrs by microplate assay; format: functional; conditions: ATCC 90030, 48 h
Candida tropicalis [10] = test: Antimicrobial activity against Candida tropicalis IP 2031 after 48 hrs by microplate assay; format: functional; conditions: IP 2031, 48 h
Candida albicans [11] = test: Antimicrobial activity against Candida albicans ATCC 2091 after 48 hrs by microplate assay; format: functional; conditions: ATCC 2091, 48 h
Pichia kudriavzevii [12] = test: Antimicrobial activity against Candida krusei ATCC 6258 by disk diffusion method; format: functional
Candida tropicalis [13] = test: Antimicrobial activity against Candida tropicalis IP 2031 by disk diffusion method; format: functional
Nakaseomyces glabratus [14] = test: Antimicrobial activity against Candida glabrata ATCC 90030 by disk diffusion method; format: functional
Staphylococcus aureus [15] = test: Antimicrobial activity against Staphylococcus aureus ATCC 6538 assessed as minimum microbial concentration after 24 hrs by microplate assay; format: functional
Nakaseomyces glabratus [16] = test: Antimicrobial activity against Candida glabrata ATCC 90030 assessed as minimum microbial concentration after 48 hrs by microplate assay; format: functional
Candida albicans [17] = test: Antimicrobial activity against Candida albicans ATCC 2091 assessed as minimum microbial concentration after 24 hrs by microplate assay; format: functional
Candida tropicalis [18] = test: Antimicrobial activity against Candida tropicalis IP 2031 assessed as minimum microbial concentration after 24 hrs by microplate assay; format: functional
Pichia kudriavzevii [19] = test: Antimicrobial activity against Candida krusei ATCC 6258 assessed as minimum microbial concentration after 48 hrs by microplate assay; format: functional
Escherichia coli [20] = test: Antimicrobial activity against Escherichia coli ATCC 10536 after 24 hrs assessed as minimum microbial concentration by microplate assay; format: functional
Pseudomonas aeruginosa [21] = test: Antimicrobial activity against Pseudomonas aeruginosa ATCC 15442 after 24 hrs by microplate assay; format: functional, organism-based
Enterococcus hirae [22] = test: Antimicrobial activity against Enterococcus hirae ATCC 10541 after 24 hrs by microplate assay; format: functional, organism-based

Compound | diameter of the inhibition zone (DIZ) (Pseudomonas aeruginosa [3]) | diameter of the inhibition zone (DIZ) (Enterococcus hirae [4]) | MIC (Pichia kudriavzevii [5]) [µg/mL] | diameter of the inhibition zone (DIZ) (Candida albicans [6]) | diameter of the inhibition zone (DIZ) (Staphylococcus aureus [7]) | diameter of the inhibition zone (DIZ) (Escherichia coli [8]) | MIC (Nakaseomyces glabratus [9]) [µg/mL] | MIC (Candida tropicalis [10]) [µg/mL] | MIC (Candida albicans [11]) [µg/mL] | diameter of the inhibition zone (DIZ) (Pichia kudriavzevii [12]) | diameter of the inhibition zone (DIZ) (Candida tropicalis [13]) [mm] | diameter of the inhibition zone (DIZ) (Nakaseomyces glabratus [14]) | Activity (Staphylococcus aureus [15]) [µg/mL] | MIC (Staphylococcus aureus [2]; ATCC 6538, 24 h) [µg/mL] | other results
COLISTIN |  |  |  |  |  |  |  |  |  |  |  |  |  |  | MIC (Escherichia coli [1]): 8.12 µg/mL; MIC (Staphylococcus aureus [2]): 0.4 µg/mL
Cc1nc2sccn2c1[N+](=O)[O-] | inactive | inactive | > 500 | inactive | inactive | inactive | > 500 | 31.2 (≈ 170 µM) | > 500 | inactive | 8 | inactive |  |  | 
CCOC(=O)/C=C/c1nc2sccn2c1[N+](=O)[O-] | inactive | inactive |  | inactive | inactive | inactive |  | 15.6 (≈ 58.4 µM) |  | inactive | 21 | inactive |  |  | 
O=C1Nc2ccccc2C1(O)Cc1nc2sccn2c1[N+](=O)[O-] (stereo not drawn) | 9 mm | inactive | > 500 | inactive | 10 mm | inactive | > 500 | 62.5 (≈ 189 µM) | 500 (≈ 1510 µM) | inactive | 8 | inactive | 500 | 500 (≈ 1510 µM) | 
O=[N+]([O-])c1c(CCl)nc2sccn12 | 11 mm | 11 mm | 62.5 (≈ 287 µM) | 16 mm | 18 mm | 14 mm | 62.5 (≈ 287 µM) | 15.6 (≈ 71.7 µM) | 62.5 (≈ 287 µM) | 20 mm | 25 | 18 mm | 250 | 125 (≈ 574 µM) | Activity (Nakaseomyces glabratus [16]): 62.5 µg/mL; Activity (Candida albicans [17]): 62.5 µg/mL; Activity (Candida tropicalis [18]): 15.6 µg/mL; Activity (Pichia kudriavzevii [19]): 62.5 µg/mL; Activity (Escherichia coli [20]): 250 µg/mL; MIC (Escherichia coli [1]; ATCC 10536, 24 h): 125 µg/mL (≈ 574 µM)
GENTAMICIN |  |  |  |  |  |  |  |  |  |  |  |  |  |  | inhibition zone (IZ) (Pseudomonas aeruginosa [3]): 19 mm; inhibition zone (IZ) (Enterococcus hirae [4]): 18 mm; MIC (Pseudomonas aeruginosa [21]): 8.12 µg/mL; inhibition zone (IZ) (Staphylococcus aureus [7]): 20 mm; inhibition zone (IZ) (Escherichia coli [8]): 19 mm; MIC (Enterococcus hirae [22]): 25 µg/mL
O=[N+]([O-])c1c(CBr)nc2sccn12 | 11 mm | 11 mm | 62.5 (≈ 238 µM) | 17 mm | 18 mm | 9 mm | 125 (≈ 477 µM) | 15.6 (≈ 59.5 µM) | 125 (≈ 477 µM) | 23 mm | 29 | 20 mm | 250 | 125 (≈ 477 µM) | Activity (Nakaseomyces glabratus [16]): 250 µg/mL; Activity (Candida albicans [17]): 125 µg/mL; Activity (Candida tropicalis [18]): 15.6 µg/mL; Activity (Pichia kudriavzevii [19]): 62.5 µg/mL
COC(=O)C(O)(Cc1nc2sccn2c1[N+](=O)[O-])C(F)(F)F (stereo not drawn) | inactive | inactive |  | inactive | inactive | inactive |  | 3.9 (≈ 11.5 µM) |  | inactive | 33 | inactive |  |  | 
CC(=O)N1C(=O)C(O)(Cc2nc3sccn3c2[N+](=O)[O-])c2ccccc21 (stereo not drawn) | inactive | inactive |  | inactive | 16 mm | inactive |  | 14 (≈ 37.6 µM) |  | inactive | 14 | inactive | 62.5 | 31.2 (≈ 83.8 µM) | 
C[C@@H]1[C@H](O)[C@@H](C)/C=C/C=C/C=C/C=C/C=C/C=C/C=C/[C@H](O[C@@H]2O[C@H](C)[C@@H](O)[C@H](N)[C@@H]2O)C[C@@H]2O[C@](O)(C[C@@H](O)C[C@@H](O)[C@H](O)CC[C@@H](O)C[C@@H](O)CC(=O)O[C@H]1C)C[C@H](O)[C@H]2C(=O)O [AMPHOTERICIN B] |  |  | 0.62 (≈ 0.671 µM) | 22 mm |  |  | 0.31 (≈ 0.335 µM) | 12.5 (≈ 13.5 µM) | 0.16 (≈ 0.173 µM) | 18 mm | 8 | 22 mm |  |  | 
CN1C(=O)C(O)(Cc2nc3sccn3c2[N+](=O)[O-])c2ccccc21 (stereo not drawn) | inactive | inactive |  | inactive | inactive | inactive |  | 125 (≈ 363 µM) |  | inactive | 12 | inactive |  |  | 
